This test deals with T1, Dimer of Gag-Pol polyprotein [501-599] (Human immunodeficiency virus 1, UniProt P03367).
T1 construct: 501-599
As to the kind of experiment: Protease Inhibition Assay. The following applies: pH 5; 30 °C. As for the experimental part: Ki values were determined by using a fluorescent substrate (DABCYL-gamma-Abu-[…]EDANS). All incubations were performed at 30°C in 0.1 M sodium acetate 1 M NaCl 1 mM DTT 1 mM EDTA 3% DMSO (pH 5.0) by using 5 uM substrate and the indicated enzyme concentrations ([E]). The enzyme concentration (A280) was determined by absorption measurements.

The values below come from BindingDB's records for doi:10.1021/jm9910371 (Uppsala University, 1999).

SMILES strings stand for the structures.

As a reminder, the Ki is a dissociation constant, usually derived from enzyme kinetics or from competition with a known ligand. Read a high Ki as weaker binding. As for `CNC(=O)[C@@H](NC(=O)[C@H](OCc1ccc(C2CCCC(=O)C2=O)cc1)[C@H](O)[C@@H](O)[C@@H](OCc1ccc(C2CCCC(=O)C2=O)cc1)C(=O)N[C@H](C(=O)NC)C(C)C)C(C)C` (stereo partly drawn) [N1,N6-Bis[(1S)-2-methyl-1-(methylcarbamoyl)pro-pyl](2R,3R,4R,5R)-2,5-bis[4-(3-cyclohexane-1,2-dionyl)benzyloxy]-3,4-dihydroxyhexanediamide], the Ki is 0.3 nM.
As for `CNC(=O)[C@@H](NC(=O)[C@H](OCc1ccccc1)[C@H](O)[C@@H](O)[C@@H](OCc1ccccc1)C(=O)N[C@H](C(=O)NC)C(C)C)C(C)C` [1-Valine Methylamide deriv. 1], the figure is 0.4 nM.
